According to patent US10588952B2, “Conjugate vaccine using trimming function of ERAP1” (SUMITOMO DAINIPPON PHARMA CO., LTD., priority 2013, dated 2020):

Key:
ERAP1 [1] = target: T1, ERAP1 (Homo sapiens, UniProt Q9NZ08); experiment: Test of trimming of N-terminal amino acid by ERAP1 (Experimental Example 9, Examples 69-84); format: biochemical; conditions: MAGE-A10 254-262 peptide obtained by ERAP1 trimming; from HPLC AUC;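 also: peptide incubated with ERAP1 for 1 h before HPLC analysis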
Experimental: The peptides synthesized in Examples 69-84 were evaluated for N-terminal amino acid trimming efficiency using ERAP1. 50 μl of ERAP1 solution (10 μg/ml) in pH 8.0, 20 mM Tris.HCl-100 mM NaCl buffer (Tris.HCl buffer) was added to 142 μl of Tris.HCl buffer. 10 mM peptide solution in DMSO (2.0 μl) and 6.0 μL of DMSO were added to the aforementioned ERAP1 solution, and the mixture was blended well and stood at 30° C. […] The peptide obtained by trimming was chemically synthesized separately, and analyzed under similar conditions in the absence of the enzyme. […]
(§1) pump: UFLC manufactured by Shimadzu […]
(§2) solution: 0.1% TFA H2O(A)-0.1% TFA CH3CN(B) […]
(§3) detection wavelength: λ=220 nm gradient: concentration of SOLUTION B was raised from 10% to 50% from 0.0 min to 8.5 min

ERAP1 [2] = target: T1, ERAP1; experiment: Test of trimming of N-terminal amino acid by ERAP1 (Experimental Example 10, Examples 85-103); format: biochemical; conditions: MAGE-A10 254-262 peptide obtained by ERAP1 trimming; from HPLC AUC
Experimental: The peptides synthesized in Examples 85-103 were evaluated for N-terminal amino acid trimming efficiency using ERAP1. 50 μl of ERAP1 solution (10 μg/ml) in pH 8.0, 20 mM Tris.HCl-100 mM NaCl buffer (Tris.HCl buffer) was added to 142 μl of Tris.HCl buffer. 10 mM peptide solution in DMSO (2.0 μl) and 6.0 μL of DMSO were added to the aforementioned ERAP1 solution, and the mixture was blended well and stood at 30° C. […] The peptide to be obtained by trimming was chemically synthesized separately, and analyzed under similar conditions in the absence of the enzyme. The formation ratio of the peptide [MAGE-A10254-262 peptide ([…]) (SEQ ID NO: 19)] obtained by trimming was determined based on the obtained AUC, and is shown in Tables 45 and 46. […]
as §1, §2, §3

[3] = Measurement of solubility in isotonic buffer (Experimental Examples 7 and 8)
Experimental: To prepare a test solution, about 1 mg of a test product was measured and the isotonic buffer (0.5 mL) was added thereto. The prepared solution was shaken at room temperature for 90 min (shaking conditions: RECIPRO SHAKER SR-1N manufactured by TAITEC, Speed=8), centrifuged (15000 rpm, 5 min, room temperature), and the supernatant after centrifugation was used as a test solution.
About 1 mg of the test product was accurately measured, dissolved in 0.1% TFA water/acetonitrile=1/1, made the total amount 10 mL, and this was used as a standard solution of the test product.
The standard solution of the test product and the test solution are analyzed by HPLC (under the analysis conditions described in Table 34), and the solubility of the test product is calculated from the ratio of peak area compared to the standard solution.
column: Chemcopack Quicksorb (4.6 mmφ×150 mm, 5 μm)
manufactured by Chemco Scientific Co., Ltd.
mobile phase: SOLUTION A; 0.1% TFA water, SOLUTION B;
0.1% TFA acetonitrile solution
column temperature: room temperature
detection wavelength: UV 254 nm, 230 nm (2 wavelength detection)
sample injection volume: 10

T1 sequence (Q9NZ08 whole entry): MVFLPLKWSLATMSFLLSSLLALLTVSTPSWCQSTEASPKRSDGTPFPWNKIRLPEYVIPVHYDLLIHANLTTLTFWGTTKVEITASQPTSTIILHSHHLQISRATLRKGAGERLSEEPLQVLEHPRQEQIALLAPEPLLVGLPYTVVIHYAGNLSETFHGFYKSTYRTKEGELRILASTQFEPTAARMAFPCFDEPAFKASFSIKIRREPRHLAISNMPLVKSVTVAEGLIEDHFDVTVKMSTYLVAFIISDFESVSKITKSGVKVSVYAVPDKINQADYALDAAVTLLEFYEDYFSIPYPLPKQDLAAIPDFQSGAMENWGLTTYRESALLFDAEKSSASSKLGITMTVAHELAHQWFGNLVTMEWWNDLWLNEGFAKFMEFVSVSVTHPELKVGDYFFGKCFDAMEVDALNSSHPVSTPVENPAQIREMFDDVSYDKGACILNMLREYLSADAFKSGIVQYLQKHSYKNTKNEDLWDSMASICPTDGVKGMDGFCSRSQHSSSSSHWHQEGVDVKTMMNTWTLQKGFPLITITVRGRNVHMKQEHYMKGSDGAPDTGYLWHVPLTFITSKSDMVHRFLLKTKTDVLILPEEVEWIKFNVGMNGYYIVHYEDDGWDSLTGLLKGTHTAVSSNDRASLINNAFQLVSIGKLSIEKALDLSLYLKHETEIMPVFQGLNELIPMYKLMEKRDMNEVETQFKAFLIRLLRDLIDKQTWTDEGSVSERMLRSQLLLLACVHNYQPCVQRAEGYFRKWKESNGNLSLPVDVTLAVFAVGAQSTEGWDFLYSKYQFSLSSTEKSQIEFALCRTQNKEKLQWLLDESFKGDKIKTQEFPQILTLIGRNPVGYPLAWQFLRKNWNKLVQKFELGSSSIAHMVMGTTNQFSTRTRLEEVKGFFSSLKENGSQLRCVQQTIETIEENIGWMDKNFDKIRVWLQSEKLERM

formation rate of GLYDGMEHL (SEQ ID NO: 19) (ERAP1 [2])	Substance	also measured
	H-CTGLYDGMEHL-OH [Example 77]	formation rate of GLYDGMEHL (SEQ ID NO: 19) (ERAP1 [1]): 89.4%
	H-CVGLYDGMEHL-OH [Example 80]	formation rate of GLYDGMEHL (SEQ ID NO: 19) (ERAP1 [1]): 0.0%
	H-CWGLYDGMEHL-OH [Example 78]	formation rate of GLYDGMEHL (SEQ ID NO: 19) (ERAP1 [1]): 0.0%
	H-CYGLYDGMEHL-OH [Example 79]	formation rate of GLYDGMEHL (SEQ ID NO: 19) (ERAP1 [1]): 0.0%
3.2%	H-DCGLYDGMEHL-OH [Example 95]	
2.9%	H-ECGLYDGMEHL-OH [Example 96]	
17.6%	H-FCGLYDGMEHL-OH [Example 103]	
10.4%	H-GCGLYDGMEHL-OH [Example 97]	
	H-GLYDGMEHL-OH [SEQ ID NO: 19]	solubility thermodynamic at 90 min ([3]; pH 6): > 1000 µg/mL; solubility thermodynamic at 90 min ([3]; pH 7.4): > 1000 µg/mL
0.0%	H-HCGLYDGMEHL-OH [Example 98]	
0.0%	H-ICGLYDGMEHL-OH [Example 99]	
0.0%	H-KCGLYDGMEHL-OH [Example 101]	
0.0%	H-LCGLYDGMEHL-OH [Example 100]	
5.8%	H-MCGLYDGMEHL-OH [Example 102]	
18.2%	H-NCGLYDGMEHL-OH [Example 94]	
19.2%	H-PCGLYDGMEHL-OH [Example 86]	
3.6%	H-QCGLYDGMEHL-OH [Example 85]	
0.0%	H-RCGLYDGMEHL-OH [Example 93]	
22.2%	H-SCGLYDGMEHL-OH [Example 87]	
7.3%	H-TCGLYDGMEHL-OH [Example 88]	
2.4%	H-VCGLYDGMEHL-OH [Example 91]	
	H-VYGFVRACL-OH [SEQ ID NO: 87]	solubility thermodynamic at 90 min ([3]; pH 6): > 1000 µg/mL; solubility thermodynamic at 90 min ([3]; pH 7.4): > 1000 µg/mL
0.0%	H-WCGLYDGMEHL-OH [Example 89]	
5.7%	H-YCGLYDGMEHL-OH [Example 90]	
